Assay results: PubChem BioAssay AID743267 (Broad Institute, 2014)

Tested on: human bronchial epithelial cells, CFTR corrector, plate reader
Assay: rescue of ΔF508 CFTR function, airway epithelium – human bronchial epithelial cells, plate reader, cherry-pick, two tests, dose response (AID 743267)
Conditions: measured here: test 1 replicate run

SMILES	AC50
C[C@@H]1CN([C@H](C)CO)S(=O)(=O)c2ccc(C#CC3CC3)cc2O[C@H]1CN(C)Cc1ccccn1	11.8 µM
C[C@@H]1CN([C@@H](C)CO)C(=O)Cc2cc(NC(=O)Nc3cccc4ccccc34)ccc2O[C@@H]1CN(C)Cc1ccc(Cl)c(Cl)c1	2.12 µM
C[C@@H]1CN([C@H](C)CO)S(=O)(=O)c2ccc(-c3ccccc3)cc2O[C@H]1CN(C)Cc1ccccn1	16 µM
CN1c2ccc(-c3ccc(C#N)cc3)cc2[C@H]2[C@H](CCN2S(=O)(=O)c2cccc(F)c2)[C@@H]1CO	16 µM
C[C@H]1CCCCO[C@@H](CN(C)C(=O)C2CCCCC2)[C@@H](C)CN([C@@H](C)CO)C(=O)c2cc(NC(=O)Nc3ccc(C(F)(F)F)cc3)ccc2O1	15.8 µM

Same assay, conditions: measured here: test 2 replicate run

SMILES	AC50
COc1cc(OC)cc(C(=O)N2CC(=O)Nc3ccccc32)c1	2.1 µM
CC(C)Oc1ncnc2c1[nH]c1ccccc12	9.38 µM
CN(Cc1ccco1)c1ncnc2ccc(-c3ccc4c(ccn4C)c3)cc12	1.77 µM
COc1cc(-c2cnc3c(NC=O)cc(-c4cccc(C(F)(F)F)c4)cn23)cc(OC)c1OC	7.05 µM
COc1ccc2[nH]c(C(=O)N/N=C/c3ccc(OC)c(O)c3)cc2c1	0.85 µM
CCc1cc(-c2nnn(CCC3COCCO3)c2CC)ccc1-c1cn(Cc2ccc3ccccc3c2)nn1 (configuration not stated)	0.6 µM
COC(=O)CSC1=C(C#N)C(c2ccc(C)o2)CC(=O)N1 (configuration not stated)	8.06 µM
Nc1ccc2c3c(cccc13)C(=O)N(c1ccccc1)C2=O	16 µM
O=c1cc(-c2ccc(O)c(O)c2)oc2cc(O)cc(O)c12	29.3 µM
CN1/C(=C\C=C2/SC(=S)N(CC(=O)O)C2=O)C(C)(C)c2ccccc21	16 µM
O=C1c2ccccc2C(=O)N1Cc1cnc(N2CCN(c3ccccc3)CC2)s1	44.1 µM
Cc1nnc(NC(=O)CSc2nccn2-c2cccc(C)c2C)s1	7.08 µM
COc1ccc(NS(=O)(=O)c2cc(NC(=O)Cc3c(F)cccc3Cl)ccc2OC)cc1	0.827 µM
CC1=Nc2cc(C(=O)NCC3CCCO3)ccc2Sc2ccc(C)cc21 (configuration not stated)	2.57 µM
Cc1cccc(OCCNC(=O)c2ccc(Cl)c(S(=O)(=O)NCc3cccnc3)c2)c1	1.97 µM
Cc1ccnc(N2C(=O)c3cccc4c([N+](=O)[O-])ccc(c34)C2=O)c1	6.5 µM
O=c1ccc2[n+]([O-])c3ccc(O)cc3oc-2c1	26.3 µM
CNC(=O)C1CC(=O)N(c2ccc(OCC(=O)Nc3ccccc3)cc2)C1 (configuration not stated)	> 50 µM
COc1cccc(Nc2nc(-c3sc(NC(=O)c4ccccc4)nc3C)cs2)c1	11.6 µM

SMILES	AC50
CCCOCCOC(=O)c1[nH]c2c(c1C)C(=O)CC(c1cc(OC)ccc1OC)C2 (configuration not stated)	3.69 µM
COc1ccc(C2=Nn3c(nnc3-c3ccccc3F)SC2)cc1OC1CCOC1 (configuration not stated)	22.3 µM
COc1ccc(Cl)cc1NC(=O)CN(C)CC(=O)Nc1cc(OC)c(OC)c(OC)c1	8.47 µM
COc1cc2c(c(Br)c1N)-c1cc(Br)c(N)cc1C2=O	> 50 µM
COc1ccccc1N1CCN(C(=O)c2ccc(-c3ccc(Cl)cc3)o2)CC1	6.64 µM
c1ccc2c(c1)C1=NCCN1c1ccccc1-2	2.93 µM
O=S(=O)(c1ccc(Br)cc1)N1CCCc2ccccc21	> 50 µM
N#CC1=C(N)Oc2cc(N)ccc2C1c1cccc(F)c1 (configuration not stated)	3.15 µM
CCN(Cc1ccccc1)c1ccc(/C=N/N=C(N)N)cc1	4.74 µM
CCC1=Nc2cc(C(=O)NCC3CCCO3)ccc2Sc2ccc(Cl)cc21 (configuration not stated)	7.26 µM
c1ccc2c(NCCCN3CCOCC3)c3ccccc3nc2c1	3.51 µM
CCOC(=O)c1ccc(-c2c(-c3cc(OC)c(OC)c(OC)c3)noc2C)cc1F	1.2 µM
CCN(CC)CCn1nc2c3c(cccc3c1=O)-c1ccccc1-2	1.1 µM
Cn1c(=O)c(NC2CCCCC2)c2c3c(cccc31)C(=O)c1ccccc1-2	8.48 µM
COC(=O)c1cc(C(=O)N2CCN(c3cccc(Cl)c3)CC2)cc([N+](=O)[O-])c1	0.383 µM
O=C(N=Nc1c(O)[nH]c2ccc(Br)cc12)c1ccccc1-n1cccc1	2.33 µM
NS(=O)(=O)c1ccc(CCNc2nn3c(-c4cccc(OC(F)(F)F)c4)cnc3s2)cc1	1.99 µM
COc1ccccc1NC(=O)CSc1ccc(-c2ccccn2)nn1	20 µM
